Data set [1] deals with T1, UDP-glucuronosyltransferase 1A9 (Homo sapiens, UniProt O60656).
T1 sequence (O60656 whole entry): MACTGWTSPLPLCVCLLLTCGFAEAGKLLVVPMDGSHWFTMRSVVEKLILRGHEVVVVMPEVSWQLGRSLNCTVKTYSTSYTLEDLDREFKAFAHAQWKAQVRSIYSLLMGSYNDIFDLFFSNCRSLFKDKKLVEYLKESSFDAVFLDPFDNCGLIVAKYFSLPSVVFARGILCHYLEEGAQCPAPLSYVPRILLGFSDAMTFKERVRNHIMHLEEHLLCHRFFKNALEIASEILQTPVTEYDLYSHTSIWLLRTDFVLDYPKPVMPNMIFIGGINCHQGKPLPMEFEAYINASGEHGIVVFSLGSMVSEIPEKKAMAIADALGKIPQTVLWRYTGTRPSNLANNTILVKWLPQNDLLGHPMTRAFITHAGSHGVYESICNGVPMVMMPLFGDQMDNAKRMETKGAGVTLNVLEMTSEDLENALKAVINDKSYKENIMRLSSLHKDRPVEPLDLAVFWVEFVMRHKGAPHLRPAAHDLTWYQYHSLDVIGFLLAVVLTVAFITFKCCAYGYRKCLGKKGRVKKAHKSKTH
Put plainly: Activity of human recombinant UGT1A9 expressed in baculovirus-infected insect cells assessed as unbound intrinsic clearance for enzyme-mediated glucuronidation per mg of protein after 5 mins by Michaelis-Menten plot analysis in presence of UDPGA and 0.1% fatty acid free BSA. The data set is classed as ADME.

The target in data set [2] is T2, UDP-glucuronosyltransferase 1A10 (Homo sapiens, UniProt Q9HAW8).
T2 sequence (Q9HAW8 whole entry): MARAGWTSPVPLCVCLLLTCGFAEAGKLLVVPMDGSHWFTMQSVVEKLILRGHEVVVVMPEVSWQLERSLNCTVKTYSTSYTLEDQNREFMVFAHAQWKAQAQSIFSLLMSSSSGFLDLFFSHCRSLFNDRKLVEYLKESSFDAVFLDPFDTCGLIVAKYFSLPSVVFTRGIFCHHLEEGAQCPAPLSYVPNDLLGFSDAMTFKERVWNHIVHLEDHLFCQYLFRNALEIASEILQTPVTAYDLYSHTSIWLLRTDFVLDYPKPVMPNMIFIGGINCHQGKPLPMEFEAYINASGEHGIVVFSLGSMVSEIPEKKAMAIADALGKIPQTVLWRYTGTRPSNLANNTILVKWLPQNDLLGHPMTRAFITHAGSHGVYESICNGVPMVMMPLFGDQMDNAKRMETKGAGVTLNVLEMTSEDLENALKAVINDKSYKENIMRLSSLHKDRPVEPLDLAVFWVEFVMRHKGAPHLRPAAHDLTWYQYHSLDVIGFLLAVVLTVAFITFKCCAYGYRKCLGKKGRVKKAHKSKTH
Briefly: Ratio of Ki to Km for human recombinant UGT1A10 expressed in baculovirus-infected insect cells. The class given is ADME. The settings on record: recombinant enzyme.

Data set [3] is described as follows: Fraction unbound incubation mixture containing human recombinant UGT1A9 at 1 to 250 uM after 10 mins by ultrafiltration method in presence of 2% fatty acid free BSA.
Data set [4] in a line: Drug metabolism in human intestinal microsomes assessed as glucuronidation per mg of protein after 5 mins by Michaelis-Menten plot analysis in presence of UDPGA. The class given is ADME, Intestine, Microsome.
A short description of data set [5]: Ratio of Km for drug metabolism in human liver microsomes to Km for human recombinant UGT1A9-mediated drug metabolism. The class given is ADME. Particulars: recombinant enzyme.
Data set [6] deals with Liver microsome. Put plainly: Drug metabolism in human liver microsomes assessed as glucuronidation per mg of protein after 10 mins by Michaelis-Menten plot analysis in presence of UDPGA and 0.5% fatty acid free BSA. The class given is ADME.
The target of data set [7] is T3, UDP-glucuronosyltransferase 2B17 (Homo sapiens, UniProt O75795).
T3 sequence (O75795 whole entry): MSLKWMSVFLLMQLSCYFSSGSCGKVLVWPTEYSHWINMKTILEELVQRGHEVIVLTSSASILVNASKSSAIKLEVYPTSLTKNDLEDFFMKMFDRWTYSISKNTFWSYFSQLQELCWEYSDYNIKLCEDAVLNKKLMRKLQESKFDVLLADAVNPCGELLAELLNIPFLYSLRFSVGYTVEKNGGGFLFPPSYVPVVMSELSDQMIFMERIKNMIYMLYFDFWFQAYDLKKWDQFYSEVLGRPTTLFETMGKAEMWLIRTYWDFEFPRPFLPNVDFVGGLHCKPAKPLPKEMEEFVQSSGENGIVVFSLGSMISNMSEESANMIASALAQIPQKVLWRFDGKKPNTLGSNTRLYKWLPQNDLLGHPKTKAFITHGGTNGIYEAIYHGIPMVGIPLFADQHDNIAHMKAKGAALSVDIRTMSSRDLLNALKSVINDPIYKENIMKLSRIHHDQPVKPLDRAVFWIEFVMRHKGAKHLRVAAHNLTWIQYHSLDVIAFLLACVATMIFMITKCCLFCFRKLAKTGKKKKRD
Put plainly: Activity of human recombinant UGT2B17 expressed in baculovirus-infected insect cells assessed as enzyme-mediated glucuronidation per mg of protein after 10 mins in presence of UDPGA. The class given is ADME.

The subject of data set [8] is Liver microsome. Put plainly: Unbound intrinsic clearance in human liver microsomes assessed per mg of protein after 10 mins in presence of UDPGA and 0.5% fatty acid free BSA. The data set is classed as ADME.
A short description of data set [9]: Substrate inhibition in human intestinal microsomes after 5 mins by Michaelis-Menten plot analysis in presence of UDPGA. The data set is classed as ADME, Intestine, Microsome.
Data set [10] has as its target T4, UDP-glucuronosyltransferase 1A7 (Homo sapiens, UniProt Q9HAW7).
T4 sequence (Q9HAW7 whole entry): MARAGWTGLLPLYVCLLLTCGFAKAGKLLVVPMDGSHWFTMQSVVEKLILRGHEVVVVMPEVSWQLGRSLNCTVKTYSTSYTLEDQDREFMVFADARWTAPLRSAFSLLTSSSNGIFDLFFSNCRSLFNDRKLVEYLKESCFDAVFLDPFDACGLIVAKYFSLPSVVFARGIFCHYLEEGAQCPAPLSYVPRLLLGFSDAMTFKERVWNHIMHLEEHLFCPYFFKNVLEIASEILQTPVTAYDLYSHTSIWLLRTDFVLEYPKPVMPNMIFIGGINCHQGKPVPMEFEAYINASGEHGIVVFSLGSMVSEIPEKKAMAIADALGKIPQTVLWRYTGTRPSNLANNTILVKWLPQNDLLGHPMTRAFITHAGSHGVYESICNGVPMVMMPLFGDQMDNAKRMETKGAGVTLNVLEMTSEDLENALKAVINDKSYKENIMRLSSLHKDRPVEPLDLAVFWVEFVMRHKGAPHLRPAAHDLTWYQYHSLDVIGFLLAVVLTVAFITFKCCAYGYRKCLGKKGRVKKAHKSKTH
Put plainly: Activity of human recombinant UGT1A7 expressed in baculovirus-infected insect cells assessed as enzyme-mediated glucuronidation per mg of protein after 10 mins in presence of UDPGA. The data set is classed as ADME.

A value given as a limit tells only on which side of the number the result lay.

As for `COc1ccc(C(=O)Nc2cccc(O)c2NC(=O)c2ccc(N3CCCN(C)CC3)cc2)cc1.O=C(O)CCC(=O)O`, the CL free in [1] was found to be 250 µL/min/mg; in [8], 184 µL/min/mg. Besides, the Ratio in data set [2] is recorded as 6.9; in data set [5] it was 4.3. In data set [3], the Fu was found to be 0.237. Moreover, the Vmax came to 4.53 nmol/min/mg in data set [4] and 3.25 nmol/min/mg in [6]. Moreover, the Drug metabolism is less than 0.01 nmol/min/mg in data set [7] and 0.251 nmol/min/mg in data set [10]. Moreover, in data set [9], the Ki amounted to 463 µM.

(Values after ChEMBL document CHEMBL3526122, “Identification of UDP-glucuronosyltransferases responsible for the glucuronidation of darexaban, an oral factor Xa inhibitor, in human liver and intestine” (Drug Metab Dispos, 2012).)
